# Assay results published in patent publication US12517131B2, “Methods for labeling eukaryotic cells from a multicellular organism as well as for treating and/or diagnosing a cancer using modified monosaccharide compounds” (DIAMIDEX, priority 2019, dated 2026).
# Several values for one entry are separate records, joined by “and”; a condition that tells them apart may be missing. Equal values may be shown once.
# Experiments:
# Assay type in all cases: cell-based
# [1] = test system: MDA MB231 (tumoral cell lines); assay: In vitro cytotoxicity of Ara-N3 probe (Annexin V/IP, MTS)
# Procedure: (§1) The cell lines (as detailed below in the table) were provided by Inserm/Aquiderm transfer cell. Cell culture of cell lines and cell cytoxicity tests were also carried out by Aquiderm transfer cell, in the laboratory of INSERM U1035.
# (§2) All the cells were seeded in culture plates, either in 96 wells at the density of 1*10^4 cells/well for the MTS proliferation test, either in 24 wells at the density of 5*10^4 cells/well for the Annexin V test/IP test. Then the cells were incubated at 37° C. and 5% CO2 for 24 hours. After 24 hours, the culture medium was changed in all the wells and the cells adhered to the bottom of the wells were rinsed twice in PBS (Eurobio) or centrifuged and washed twice in PBS for the cells in suspension, before being exposed to the Ara-N3 probe at different concentrations: 1, 10, 50 and 100 mM. The cells were incubated at 37° C. and 5% CO2 for 48 hours.
# (§3) This test requires the use of an Annexin V-APC kit (Biolegend) for the detection of apoptosis/necrosis. This test uses the ability of Annexin V to bind to membrane phosphatidylserines (PS) and the intercalating properties of propidium iodide (PI) on DNA.
# (§4) Briefly, after incubation of the cells with the Ara-N3 probe at different concentrations and at different times (24 h and 48 h), the cells were recovered, trypsinized (for adherent cells) and washed in PBS. After counting in trypan blue on the Malassez cell, the cells were incubated in a labeling buffer (100 μL) in the presence of Annexin V-APC (5 μL) and of IP (10 μL) for 15 minutes at room temperature and in the dark. They were then directly analyzed by cytometry after adding 100 μL of labeling buffer.
# (§5) The non-toxic concentrations of Ara-N3 with respect to the tested cells are gathered in the following Table 5.
# [2] = test system: HME1 (immortalized cell lines); assay: as above
# Procedure: as §1, §2, §3, §4, §5
# [3] = test system: human uroepithelial cells (SV-HUC-1); assay: Labeling of bladder cells with Ara-N3 probe, copper-free click, fluorescence microscopy; conditions: 24 h, Ara-N3 10 mM
# Procedure: (§6) The human uroepithelial cells (SV-HUC-1) and the human urinary bladder carcinoma (T24) were purchased from ATCC (Manassas, Van USA). These cell lines were grown in RPMI 1640 with Glutamine 1 medium (Lonza Biowhttaker) supplemented by 10% fetal bovine serum (FBS) (VWR international S.A.S). The culture medium was changed every two days. The passaging of cells was performed using Tryp-LE express 1× (Gibco). The cell viability was estimated using trypan blue exclusion tests.
# (§7) SV-HUC-1 and T24 cells were seeded in 24-well plates, at density of 5*10^4 cells/well. Then, cells were incubated at 37° C., 5% in CO2 during 24 hours. Thereafter, the culture medium of each well was discarded, and attached cells were washed twice with Phosphate Buffer Salin (PBS) (Lonza Biowhittaker), before to be exposed to Ara-N3 probe (10 mM). Probe was added to culture medium with different FBS concentrations (3% and 10%). Then, cells were incubated at 37° C., 5% in CO2 for 24 hours again. The control cells were cultured using culture medium supplemented with 5% or 10% FBS, without addition of Ara-N3.
# (§8) The fluorescence Assimilation of Ara-N3 probes was visualized by copper-free click chemistry using sulfo-DBCO-biotin (1 mM), followed by labeling with a mouse anti-biotin Alexa Fluor 488 antibody conjugate (0.62 mg/ml stock, Jackson ImmunoResearch, dilution 1/10). The click reaction was carry-out as following: At 24 h incubation times, the culture mediums were removed, and attached cells were washed twice with PBS. Cells were detached with Tryp-LE, washed twice with PBS, and centrifuged at 13000 g for 2 min. The cellular pellets were resuspended with 10 μL of sulfo-DBCO-biotin and incubated 30 min in the dark, and at 37 C°. Then, cells were washed twice with PBS, centrifuged, and cellular pellets were resuspended with 10 μL of a mouse anti-biotin antibody solution, before to be incubated at room temperature in dark. Thereafter, cells were washed twice with PBS and small cellular suspension spots (5 μL) were put in Polysine® adhesion slides (VWR international S.A.S), in the dark room, until dry (20 min). The spots were fixed with 4% paraformaldehyde during 20 min, in dark and room temperature. Slides were then washed twice with PBS, before recovering with square cover glasses (VWR international S.A.S) using glycerol Mounting Medium (Dako) and stored at 4° C. in dark room.
# (§9) The fluorescence acquisition was recorded using Olympus Microscopy IX83 (Olympus Life Science) equipped with a 60×/1.3 […]/1.4 SRI (silicone refractive index) objective, and Hamamatsu oreca flash 4 LT camera with 109 nm/pixel calibrated pixel size. The excitation light was emitted by X-CITE 120LED using the AT180/30X excited filter and signal was monitored using AT535/40m emission filter. Green light exposition time was 600 ms and white light exposition time was determined by DIC methods at […]. The acquisition area size analyzed by the Celisens dimension V1.16 software was different depending on the cell number containing in the spot.
# (§10) The images were processed using count and measure unit of the Cellsens dimension V1.16 software. The background noise was deleted as follows: ROI were first defined on the background of the image and the average pixel intensity was calculated. The value thus obtained was subtracted from all pixels of the image. The fluorescence intensity of each cell was determined from a threshold set at a value of 3030. All pixels that have intensity below 3030 were not counted.
# [4] = test system: human urinary bladder carcinoma (T24); assay: as above; conditions: 24 h, Ara-N3 10 mM
# Procedure: as §6, §7, §8, §9, §10
smiles,measurement,setting,value
"[N-]=[N+]=NC[C@H]1OC(O)[C@@H](O)[C@@H]1O (stereo partly drawn) [Ara-N3, 5-azido-5-deoxy-D-arabinofuranose]",Non-toxic concentration of Ara-N3,[1],>1 mM
same,Non-toxic concentration of Ara-N3,[2],>1 mM
same,"labelled cells %, SV-HUC1 %","[3]; Intensity/μm^2 0-50000, FBS 3%, n = 239",62.34%
same,"labelled cells %, SV-HUC1 %","[3]; Intensity/μm^2 0-50,000, FBS 10%, n = 301",73.45%
same,"labelled cells %, SV-HUC1 %","[3]; Intensity/μm^2 50,000-100,000, FBS 3%, n = 239",2.51%
same,"labelled cells %, SV-HUC1 %","[3]; Intensity/μm^2 50,000-100,000, FBS 10%, n = 301",4.32%
same,"labelled cells %, SV-HUC1 %","[3]; Intensity/μm^2 100,000-150,000, FBS 3%, n = 239",2.09%
same,"labelled cells %, SV-HUC1 %","[3]; Intensity/μm^2 100,000-150,000, FBS 10%, n = 301",1.66%
same,"labelled cells %, SV-HUC1 %","[3]; Intensity/μm^2 150,000-200,000, FBS 3%, n = 239",1.26%
same,"labelled cells %, SV-HUC1 %","[3]; Intensity/μm^2 150,000-200,000, FBS 10%, n = 301",1.33%
same,"labelled cells %, SV-HUC1 %","[3]; Intensity/μm^2 200,000-250,000, FBS 3%, n = 239",1.67%
same,"labelled cells %, SV-HUC1 %","[3]; Intensity/μm^2 200,000-250,000, FBS 10%, n = 301",0.66%
same,"labelled cells %, SV-HUC1 %","[3]; Intensity/μm^2 250,000-300,000, FBS 3%, n = 239",3.77%
same,"labelled cells %, SV-HUC1 %","[3]; Intensity/μm^2 250,000-300,000, FBS 10%, n = 301",0.66%
same,"labelled cells %, SV-HUC1 %","[3]; Intensity/μm^2 300,000-350,000, FBS 3%, n = 239",0.42%
same,"labelled cells %, SV-HUC1 %","[3]; Intensity/μm^2 300,000-350,000, FBS 10%, n = 301",0.33%
same,"labelled cells %, SV-HUC1 %","[3]; Intensity/μm^2 350,000-400,000, FBS 3%, n = 239",0.42%
same,"labelled cells %, SV-HUC1 %","[3]; Intensity/μm^2 350,000-400,000, FBS 10%, n = 301",0.66%
same,"labelled cells %, SV-HUC1 %","[3]; Intensity/μm^2 400,000-450,000, FBS 3%, n = 239",0.84%
same,"labelled cells %, SV-HUC1 %","[3]; Intensity/μm^2 400,000-450,000, FBS 10%, n = 301",0.66%
same,"labelled cells %, SV-HUC1 %","[3]; Intensity/μm^2 450,000-500,000, FBS 3%, n = 239",2.93%
same,"labelled cells %, SV-HUC1 %","[3]; Intensity/μm^2 450,000-500,000, FBS 10%, n = 301",1.33%
same,"labelled cells %, SV-HUC1 %","[3]; Intensity/μm^2 >500,000, FBS 3%, n = 239",21.76%
same,"labelled cells %, SV-HUC1 %","[3]; Intensity/μm^2 >500,000, FBS 10%, n = 301",14.62%
same,"labelled cells %, T24 %","[4]; Intensity/μm^2 0-50000, FBS 3%, n = 226",2.21%
same,"labelled cells %, T24 %","[4]; Intensity/μm^2 0-50,000, FBS 10%, n = 282",1.42%
same,"labelled cells %, T24 %","[4]; Intensity/μm^2 50,000-100,000, FBS 3%, n = 226",2.65%
same,"labelled cells %, T24 %","[4]; Intensity/μm^2 50,000-100,000, FBS 10%, n = 282",2.13%
same,"labelled cells %, T24 %","[4]; Intensity/μm^2 100,000-150,000, FBS 3%, n = 226",2.65%
same,"labelled cells %, T24 %","[4]; Intensity/μm^2 100,000-150,000, FBS 10%, n = 282",2.48%
same,"labelled cells %, T24 %","[4]; Intensity/μm^2 150,000-200,000, FBS 3%, n = 226",5.75%
same,"labelled cells %, T24 %","[4]; Intensity/μm^2 150,000-200,000, FBS 10%, n = 282",1.42%
same,"labelled cells %, T24 %","[4]; Intensity/μm^2 200,000-250,000, FBS 3%, n = 226",3.98%
same,"labelled cells %, T24 %","[4]; Intensity/μm^2 200,000-250,000, FBS 10%, n = 282",2.13%
same,"labelled cells %, T24 %","[4]; Intensity/μm^2 250,000-300,000, FBS 3%, n = 226",3.54%
same,"labelled cells %, T24 %","[4]; Intensity/μm^2 250,000-300,000, FBS 10%, n = 282",1.42%
same,"labelled cells %, T24 %","[4]; Intensity/μm^2 300,000-350,000, FBS 3%, n = 226",2.21%
same,"labelled cells %, T24 %","[4]; Intensity/μm^2 300,000-350,000, FBS 10%, n = 282",1.77%
same,"labelled cells %, T24 %","[4]; Intensity/μm^2 350,000-400,000, FBS 3%, n = 226",3.98%
same,"labelled cells %, T24 %","[4]; Intensity/μm^2 350,000-400,000, FBS 10%, n = 282",2.48%
same,"labelled cells %, T24 %","[4]; Intensity/μm^2 400,000-450,000, FBS 3%, n = 226",2.65%
same,"labelled cells %, T24 %","[4]; Intensity/μm^2 400,000-450,000, FBS 10%, n = 282",3.19%
same,"labelled cells %, T24 %","[4]; Intensity/μm^2 450,000-500,000, FBS 3%, n = 226",3.54%
same,"labelled cells %, T24 %","[4]; Intensity/μm^2 450,000-500,000, FBS 10%, n = 282",2.13%
same,"labelled cells %, T24 %","[4]; Intensity/μm^2 >500,000, FBS 3%, n = 226",66.81%
same,"labelled cells %, T24 %","[4]; Intensity/μm^2 >500,000, FBS 10%, n = 282",79.42% and 79.43%
